Assay results as given in patent US8034940B2, “Modulators of glucocorticoid receptor, AP-1, and/or NF-κB activity and use thereof” (Bristol-Myers Squibb Company, priority 2006, dated 2011).

Tested on: AP-1 induced transcriptional activity
Test: Cellular Transrepressional Assay (AP-1 luciferase reporter, PMA-activated A549 cells)
Format: cell-based
Conditions: for Emax: A549, 7 h, read-out: AP-1 Max % inh (Cellular Transrepression Assay); for Emax / AP-1 Max % inh (Cellular Transrepression Assay): maximum inhibition
Experimental: Cellular Transrepressional Assay
To measure the ability of test molecules to inhibit AP-1 induced transcriptional activity we utilized an A549 cell which was stably transfected with a plasmid containing 7× AP-1 DNA binding sites (pAP-1-Luc plasmid, Stratagene Co. La Jolla, Calif.) followed by the gene for luciferase. Cells were activated with 10 ng/ml of […] (PMA) plus or minus test molecules for 7 hours. After 7 hours a luciferase reagent was added to measure luciferase enzymatic activity in the cell. After a 10 minute incubation of luciferase reagent with cells, luminescence was measured in a TopCount luminescence counter. Repression of AP-1 activity was calculated as the percentage decrease in the signal induced by PMA alone. Test molecules were analyzed in the concentration range from 0.1 nM to 40 μM. EC50s were determined by using standard curve fitting methods such as Excel fit (Microsoft Co.).

[1] = Homo sapiens, Cellular Transrepression Assay
[2] = Homo sapiens, A549, Cellular Transrepression Assay

Row | Structure (SMILES) | Emax [1] | EC50 [2] | EC50 (Cellular Transrepression Assay) | AP-1 Max % inh (Cellular Transrepression Assay) (Cellular Transrepression Assay)
1 | Cc1ccc(-c2csc(NC(=O)CC3c4ccccc4Oc4ccccc43)n2)c2ccccc12 [Example 3] | 47.8% |  |  | 
2 | CCc1cnc(-c2ccc3c(c2)Oc2ccccc2[C@H]3C(C)(C)C(=O)Nc2nncs2)nc1 [Example 110] | 35.7% | 183 nM |  | 
3 | CC(C)(C(=O)Nc1nncs1)[C@H]1c2ccccc2Oc2nc(-c3ccc(C(=O)N4CCOCC4)c(F)c3)ccc21 [Example 327] |  |  | 8.93 nM | 59.45%
4 | CN1CCN(c2ccc3c(n2)Oc2ccccc2C3C(C)(C)C(=O)Nc2nncs2)CC1 (stereo not drawn) [Example 131] | 45.6% | 970 nM |  | 
5 | CC(C)(C(=O)Nc1nncs1)C1c2ccccc2Oc2cc(OC(=O)NC3CCCCC3)ccc21 (stereo not drawn) [Example 385] |  |  | 96.5 nM | 28.99%
6 | Cc1nnc(NC(=O)C(C)(C)[C@H]2c3ccccc3Oc3nc(-c4ccc(C(=O)N5CCC(F)(F)C5)c(F)c4)ccc32)s1 [Example 477] | 44.8% | 39.8 nM |  | 
7 | CN(CCC#N)C(=O)c1ccc(-c2ccc3c(n2)Oc2ccccc2[C@@H]3C(C)(C)C(=O)Nc2nncs2)cc1 [Example 267] |  |  | 569 nM | 40.78%
8 | COc1ccc(Cc2csc(NC(=O)C(C)(C)C3c4ccccc4Oc4cc(OC)ccc43)n2)cc1 (stereo not drawn) [Example 49] | 68.8% | 40.3 nM |  | 
9 | COc1ccc2c(c1)Oc1ccccc1C2C(C)(C)C(=O)Nc1nc(-c2ccc(C)c3ccccc23)cs1 (stereo not drawn) [Example 46] | 67.6% | 90.2 nM |  | 
10 | CCCOc1ccc(-c2ccc3c(n2)Oc2ccccc2C3C(C)(C)C(=O)Nc2nncs2)cc1F (stereo not drawn) [Example 230] |  |  | 550 nM | 52.33%
11 | CC(C)(C(=O)Nc1nncs1)C1c2ccccc2Oc2cc(NC(=O)NC3CCCC3)ccc21 (stereo not drawn) [Example 125] | 33.2% | 94.3 nM |  | 
12 | CC(C)(C(=O)Nc1nnc(C#N)s1)[C@H]1c2ccccc2Oc2nc(-c3ccc(C(=O)N4CCOCC4)cc3)ccc21 [Example 434] |  |  | 197 nM | 38.45%
13 | Cc1ccc(-c2csc(NC(=O)C(C)(C)C3c4ccccc4-c4ccccc43)n2)c2ccccc12 [Example 20] | 46.9% | 473 nM |  | 
14 | CC(C)(C(=O)Nc1nc(-c2cccc3ccccc23)cs1)C1c2ccccc2Sc2ccccc21 [Example 6] | 67.9% | 461 nM |  | 
15 | CC(C)C1CCCN1C(=O)c1ccc(-c2ccc3c(n2)Oc2ccccc2[C@@H]3C(C)(C)C(=O)Nc2nncs2)cc1 (stereo partly drawn) [Example 318] | 27.6% | 63.1 nM |  | 
16 | COc1ccc2c(c1)Oc1ccccc1C2C(C)(C)C(=O)Nc1nc(-c2ccc(F)c3ccccc23)cs1 (stereo not drawn) [Example 45] | 71.5% | 102 nM |  | 
17 | CC(C)(C(=O)Nc1nncs1)C1c2ccccc2Oc2nc(-c3ccc(Oc4ccccc4)cc3)ccc21 (stereo not drawn) [Example 198] |  |  | 22.2 nM | 34.38%
18 | CN(C)c1nnc(NC(=O)C(C)(C)[C@H]2c3ccccc3Oc3nc(-c4ccc(C(=O)N5CCCC5)c(F)c4)ccc32)s1 [Example 429] | 41.8% | 67.3 nM |  | 
19 | CCN(C)C(=O)c1ccc(-c2ccc3c(n2)Oc2ccccc2[C@@H]3C(C)(C)C(=O)Nc2nncs2)cc1Cl [Example 345] |  |  | 124 nM | 54.25%
20 | CC(C)(C(=O)Nc1nncs1)[C@H]1c2ccccc2Oc2nc(-c3ccc(C(=O)N4CCCCC4)cc3)ccc21 [Example 247] | 52.4% | 4.74 nM |  | 
21 | COc1ccc2c(c1)Oc1ccccc1[C@H]2C(C)(C)C(=O)Nc1nc(Cc2ccc(-c3ccncc3)cc2)cs1 [Example 54] | 71.4% | 13.1 nM |  | 
22 | COC[C@H]1CCCN1C(=O)c1ccc(-c2ccc3c(n2)Oc2ccccc2[C@@H]3C(C)(C)C(=O)Nc2nncs2)cc1F [Example 325] | 56.1% | 90.2 nM |  | 
23 | CC(C)(C(=O)Nc1nncs1)[C@H]1c2ccccc2Oc2nc(-c3ccc(C(=O)N4CCC(F)(F)CC4)c(F)c3)ccc21 [Example 334] | 36.2% | 3.36 nM |  | 
24 | COc1ccc2c(c1)Oc1ccccc1C2C(C)(C)C(=O)Nc1nc(-c2cccc3ccccc23)cs1 (stereo not drawn) [Example 52] | 70.8% | 213 nM |  | 
25 | CC(C)(C(=O)Nc1nc(-c2ccc(F)c3ccccc23)cs1)C1c2ccccc2Oc2ncccc21 (stereo not drawn) [Example 63] | 75.8% |  |  | 
26 | CC(C)(C(=O)Nc1nncs1)C1c2ccccc2Oc2cc(OC(=O)NCCc3ccccc3)ccc21 (stereo not drawn) [Example 375] |  |  | 82.8 nM | 51.24%
27 | CCC(C)NC(=O)Oc1ccc2c(c1)Oc1ccccc1C2C(C)(C)C(=O)Nc1nncs1 (stereo not drawn) [Example 383] |  |  | 46.3 nM | 41.78%
28 | CC(C)(C(=O)Nc1nncs1)[C@@H]1c2ccccc2Oc2cc(O)ccc21 [Example 95] | 52.2% | 574 nM |  | 

Row | Structure (SMILES) | Emax [1] | EC50 [2] | EC50 (Cellular Transrepression Assay) | AP-1 Max % inh (Cellular Transrepression Assay) (Cellular Transrepression Assay)
29 | CC(C)(C(=O)Nc1nnc(CO)s1)[C@H]1c2ccccc2Oc2nc(-c3ccc(C(=O)N4CCCC4)c(F)c3)ccc21 [Example 423] | 30.4% | 82 nM |  | 
30 | CC(C)(C(=O)Nc1nnc(CF)s1)[C@H]1c2ccccc2Oc2nc(-c3ccc(C(=O)N4CCCC4)c(F)c3)ccc21 [Example 431] | 41.8% | 69 nM |  | 
31 | CC(C)(C(=O)Nc1nncs1)C1c2ccccc2Oc2nc(-c3ccc(OC(F)(F)F)cc3)ccc21 (stereo not drawn) [Example 173] |  |  | 82.5 nM | 44.82%
32 | CCCCCc1ccc(-c2ccc3c(n2)Oc2ccccc2C3C(C)(C)C(=O)Nc2nncs2)cc1 (stereo not drawn) [Example 220] |  |  | 105 nM | 52.23%
33 | CC(C)(C(=O)Nc1nnc(C(=O)NC2CC2)s1)[C@H]1c2ccccc2Oc2nc(-c3ccc(C(=O)N4CCCC4)c(F)c3)ccc21 [Example 422] | 41.6% | 84.1 nM |  | 
34 | CC(C)(C(=O)Nc1nccs1)C1c2ccccc2Oc2nc(N)ccc21 (stereo not drawn) [Example 158] | 62.5% | 200 nM |  | 
35 | CC(C)(C(=O)Nc1nncs1)[C@H]1c2ccccc2Oc2nc(-c3cccc(F)c3)ccc21 [Example 225] |  |  | 920 nM | 45.65%
36 | CC(C)(C(=O)Nc1nncs1)C1c2ccccc2Oc2nc(NCc3ccccc3)ccc21 (stereo not drawn) [Example 133] | 61.3% | 585 nM |  | 
37 | CC(C)(C(=O)Nc1nncs1)C1c2ccccc2Oc2cc(OC(=O)NCCCc3ccccc3)ccc21 (stereo not drawn) [Example 380] |  |  | 101 nM | 53.58%
38 | CC(C)(C(=O)Nc1nncs1)[C@H]1c2ccccc2Oc2nc(-c3ccc(C(=O)N4CCOCC4)cc3)ccc21 [Example 257] |  |  | 12.4 nM | 63.96%
39 | CC(C)(C(=O)Nc1nncs1)[C@H]1c2ccccc2Oc2nc(-c3ccc(C(=O)N4CCC(F)(F)CC4)cc3)ccc21 [Example 300] | 61.8% | 14.8 nM |  | 
40 | CC(C)(C(=O)Nc1nnc(C(=O)NC2CC2)s1)[C@H]1c2ccccc2Oc2nc(-c3ccc(C(=O)N4CCOCC4)cc3)ccc21 [Example 422] | 63.5% | 46.7 nM |  | 
41 | CC(C)(C(=O)Nc1nncs1)[C@H]1c2ccccc2Oc2nc(-c3ccc(C(=O)NC4CC4)cc3)ccc21 [Example 350] | 45.1% | 520 nM |  | 
42 | C[S+]([O-])c1cnc(NC(=O)C(C)(C)[C@H]2c3ccccc3Oc3nc(-c4ccc(C(=O)N5CCCC5)c(F)c4)ccc32)s1 (stereo partly drawn) [Example 427] | 25.1% | 188 nM |  | 
43 | CC(C)(C(=O)Nc1nncs1)C1c2ccccc2Oc2nc(N3CCCC3)ccc21 (stereo not drawn) [Example 130] | 31.5% | 111 nM |  | 
44 | CC(C)(C(=O)Nc1nncs1)C1c2ccccc2Oc2cc(-c3ccc(C(=O)N4CCOCC4)cc3)ncc21 (stereo not drawn) [Example 492] | 28.4% | 182 nM |  | 
45 | CCS(=O)(=O)c1ccc(-c2ccc3c(n2)Oc2ccccc2C3C(C)(C)C(=O)Nc2nncs2)cc1 (stereo not drawn) [Example 227] |  |  | 37.9 nM | 42.50%
46 | CC(C)(C(=O)Nc1nc(-c2cccc3ccccc23)cs1)C1c2ccccc2Oc2nc(Cl)ccc21 (stereo not drawn) [Example 74] | 71.2% | 319 nM |  | 
47 | CCN(CC)C(=O)c1ccc(-c2ccc3c(n2)Oc2ccccc2[C@@H]3C(C)(C)C(=O)Nc2nncs2)cc1Cl [Example 263] | 58% | 15.4 nM |  | 
48 | CCCCNC(=O)Oc1ccc2c(c1)Oc1ccccc1[C@@H]2C(C)(C)C(=O)Nc1nncs1 [Example 370] | 57.6% | 34.2 nM |  | 
49 | CCSc1ccc(-c2ccc3c(n2)Oc2ccccc2C3C(C)(C)C(=O)Nc2nncs2)cc1 (stereo not drawn) [Example 226] |  |  | 18.1 nM | 49.05%
50 | Cc1noc(C)c1-c1ccc(Cc2csc(NC(=O)C(C)(C)C3c4ccccc4Oc4ccccc43)n2)cc1 [Example 43] | 71.9% | 13.4 nM |  | 
51 | CC(C)(C(=O)Nc1nncs1)[C@H]1c2ccccc2Oc2nc(-c3ccc(C(=O)N4CC(O)C4)cc3)ccc21 [Example 315] | 40.9% | 750 nM |  | 
52 | CC(C)(C(=O)Nc1nncs1)C1c2ccccc2Oc2cc(OC(=O)NCc3ccc(Cl)c(Cl)c3)ccc21 (stereo not drawn) [Example 379] |  |  | 74 nM | 51.21%
53 | CC(C)Oc1ccc(-c2ccc3c(n2)Oc2ccccc2[C@@H]3C(C)(C)C(=O)Nc2ncns2)cc1F [Example 459] | 35.4% | 102 nM |  | 
54 | Cc1nsc(NC(=O)C(C)(C)C2c3ccc(-c4ccc(C(=O)N5CCOCC5)cc4)nc3Oc3c(F)cccc32)n1 (stereo not drawn) [Example 164] | 58% | 8.5 nM |  | 
55 | CC(C)(C(=O)Nc1nc(-c2cccc3ccccc23)cs1)C1c2ccccc2Oc2ccccc21 [Example 30] | 67.2% | 338 nM |  | 
